pIC50: −log10 of the molar value. Like-named read-outs stand apart in the source and are kept apart here.
Legend:
Type in all cases: cell-based, human
[1] = Single-dose CCK-8 cell viability screening (adherent cells); details: average of A549 and Jurkat % viability, 50 uM, 48 h; for viability at 50 µM: Homo sapiens
Protocol: (§1) In this example, the anti-cancer properties of the BB analogues described in Table 1d were evaluated. Single-dose screening approach is used for initial testing to assess the cytotoxic effect of the BB analogues (also referred to as ‘BB compounds’) on Jurkat cells (human T cell leukaemia cells) and A549 cells (human lung cancer cells).
(§2) Method for Adherent Cells (A549 Cells)
(§3) In this example, 5000 cells/100 uL were seeded in 96-well plates and incubate at 37° C.+5% CO2 overnight. Media were replaced with 100 uL of 50 uM compound per well in 6 replicates. The following controls were prepared.
(§4) Blank control: 100 uL 0.1% DMSO in media with no cells per well.
(§5) Positive control: 100 uL of 10 uM 5-flurouracil per well.
(§6) Negative control: 100 uL of 0.1% DMSO in media per well.
(§7) Each 96-well plate included 7 compounds and the complete set of controls (in 6 replicates).
(§8) Cells were incubated at 37° C.+5% CO2 for 46 hours. 10 uL of CCK8 solution was added to each well. Cells were then incubated at 37° C.+5% CO2 for 2 hours. Absorbance at 450 nm was measured using a multiplate reader.
(§9) Viability was calculated using the equation: […]
(§10) The benchmark in Table 2 was used to define the activities of each compound.

A549 cells [2] = assay: as above; details: for viability at 50 µM: Homo sapiens, A549, 48 h, read-out: % Viability (50 uM, 48 h) A549
Protocol: as §1, §2, §3, §4, §5, §6, §7, §8, §9, §10

Jurkat cells = assay: Single-dose CCK-8 cell viability screening (suspension cells); details: for viability at 50 µM: Homo sapiens, Jurkat, 48 h
Protocol: as §1
Method for Suspension Cells (Jurkat Cells)
5000 cells/90 uL were seeded in 96-well plates. 10 uL of 500 uM compound (10×) was added to each well in 6 replicates. The following controls were prepared.
Blank control: 10 uL 1% DMSO in media with no cells per well.
Positive control: 10 uL of 100 uM 5-flurouracil (10×) per well.
Negative control: 10 uL of 1% DMSO in media (10×) per well.
Each 96-well plate included 7 BB analogues and the complete set of controls (in 6 replicates).
as §8, §9, §10

A549 cells [3] = assay: Dose-dependent CCK8 viability assay; details: Homo sapiens
Protocol: In this example, dose-dependent CCK8 Viability assay was performed to determine the IC50 (the concentration of compound to achieve 50% viability) of several of the hit compounds identified from Example 2. A variety of cell lines were used: • Jurkat cells: Human leukemia • A549 cells: Human NSCLC • KP-1 cells: Mouse NSCLC with KRAS and P53 mutations • MCF-7 cells: Human breast cancer
Method for Adherent Cells (A549, MCF-7 and KP-1 Cells)
5000 cells/100 uL were seeded in 96-well plates and incubate at 37° C.+5% CO2 overnight. Media were replaced with 100 uL of compound per well in 6 replicates in a series of 2-fold dilutions. The following controls were prepared.
as §4, §5, §6
Each 96-well plate included 1 compound in 7 concentrations and a complete set of controls (in 6 replicates).
Cells were incubated at 37° C.+5% CO2 for 46 hours. 10 uL of CCK8 solution was added to each well. Cells were incubated at 37° C.+5% CO2 for 2 hours. Absorbance at 450 nm was measured using a multiplate reader.
as §9

[4] = Jurkat cells, 50 uM, CCK-8, read-out: % Viability (50 uM, 48 h) Jurkat
[5] = read-out: % Viability (50 uM, 48 h) Jurkat

## CC(C)(C)[C@]1(O)C[C@@H]2OC(=O)C[C@@]23C(=O)O[C@@H]2N(c4ccc(Cl)c(Cl)c4)C(=O)[C@H](OC(=O)c4ccccc4)[C@]213 [P-21, (3aS,5aS,8R,8aS,9R,10aS)-9-(tert-butyl)-9-hydroxy-2,4,7-trioxo-6-(3,4-dichloro-phenyl)octahydro-4H,9H-furo [3″,2″:2′,3′]cyclopenta [1′,2′:3,4]furo [2,3-b]pyrrol-8-yl benzoate]
[1]; A549, 48 h
  viability at 50 µM: 55%
A549 cells [2]; A549 cells, 50 uM, 48 h, CCK-8
  viability at 50 µM: 56.5%
Jurkat cells; [4]
  viability at 50 µM: 53.5%
A549 cells [3]; A549, 48 h
  pIC50: 4.75

## CC(C)(C)[C@]1(O)C[C@@H]2OC(=O)C[C@@]23C(=O)O[C@@H]2N(CC45CC6CC(CC(C6)C4)C5)C(=O)[C@H](OC(=O)c4ccccc4)[C@]213 [SCC363, (3aS,5aS,8R,8aS,9R,10aS)-6-(adamantan-1-ylmethyl)-9-(tert-butyl)-9-hydroxy-2,4,7-trioxooctahydro-4H,9H-furo[3″,2″:2′,3′]cyclopenta[1′,2′:3,4]furo[2,3-b]pyrrol-8-yl benzoate]
A549 cells [3]; 48 hours
  pIC50: 5.00

## Cc1c(CCN2C(=O)[C@H](OC(=O)c3ccccc3)[C@@]34[C@@H]2OC(=O)[C@@]32CC(=O)O[C@H]2C[C@@]4(O)C(C)(C)C)[nH]c2ccccc12 [XBB-029, (3aS,5aS,8R,8aS,9R,10aS)-9-(tert-butyl)-9-hydroxy-6-(2-(3-methyl-1H-indol-2-yl)ethyl)-2,4,7-trioxooctahydro-4H,9H-furo [3″,2″:2′,3′]cyclopenta[1′,2′:3,4]furo[2,3-b]pyrrol-8-yl benzoate]
[1]; A549, 48 h
  viability at 50 µM: 94.8%
A549 cells [2]; A549 cells, 50 uM, 48 h, CCK-8
  viability at 50 µM: 96.1%
Jurkat cells; [4]
  viability at 50 µM: 93.4%

## CC(C)(C)[C@]1(O)C[C@@H]2OC(=O)C[C@@]23C(=O)O[C@@H]2N(c4ccccc4)C(=O)[C@H](OC(=O)c4ccccc4)[C@]213 [XBB-034, (3aS,5aS,8R,8aS,9R,10aS)-9-(tert-butyl)-9-hydroxy-2,4,7-trioxo-6-phenyloctahydro-4H,9H-furo[3″,2″:2′,3′]cyclopenta [1′,2′:3,4]furo[2,3-b]pyrrol-8-yl benzoate]
[1]
  viability at 50 µM: 72.5%
A549 cells [2]
  viability at 50 µM: 56%
Jurkat cells; [5]
  viability at 50 µM: 89.1%

## CC(=O)Nc1ccc(N2C(=O)[C@H](OC(=O)c3ccccc3)[C@@]34[C@@H]2OC(=O)[C@@]32CC(=O)O[C@H]2C[C@@]4(O)C(C)(C)C)cc1 [XBB-035, (3aS,5aS,8R,8aS,9R,10aS)-6-(4-acetamidophenyl)-9-(tert-butyl)-9-hydroxy-2,4,7-trioxooctahydro-4H,9H-furo [3″,2″:2′,3′]cyclopenta [1′,2′:3,4]furo[2,3-b]pyrrol-8-yl benzoate]
[1]; A549, 48 h
  viability at 50 µM: 76.9%
A549 cells [2]; A549 cells, 50 uM, 48 h, CCK-8
  viability at 50 µM: 66.9%
Jurkat cells; [4]
  viability at 50 µM: 87%

## CC(C)(C)OC(=O)Nc1ccc(N2C(=O)[C@H](OC(=O)c3ccccc3)[C@@]34[C@@H]2OC(=O)[C@@]32CC(=O)O[C@H]2C[C@@]4(O)C(C)(C)C)cc1 [XBB-036]
[1]; A549, 48 h
  viability at 50 µM: 70.6%
A549 cells [2]; A549 cells, 50 uM, 48 h, CCK-8
  viability at 50 µM: 52.4%
Jurkat cells; [4]
  viability at 50 µM: 88.8%

## CC(C)(C)[C@]1(O)C[C@@H]2OC(=O)C[C@@]23C(=O)O[C@@H]2N(c4ccc(N)cc4)C(=O)[C@H](OC(=O)c4ccccc4)[C@]213 [XBB-037′]
[1]
  Average (%): 104.22%
A549 cells [2]; A549 cells, 50 uM, 48 h, CCK-8
  % Viability (50 uM, 48 h) A549: 110.02%
Jurkat cells; Jurkat cells, 50 uM, CCK-8, 50 µM
  % Viability (50 uM, 48 h) Jurkat: 98.42%

## CC(C)(C)[C@]1(O)C[C@@H]2OC(=O)C[C@@]23C(=O)O[C@@H]2N(c4ccc(N5CCOCC5)cc4)C(=O)[C@H](OC(=O)c4ccccc4)[C@]213 [XBB-038, (3aS,5aS,8R,8aS,9R,10aS)-9-(tert-butyl)-9-hydroxy-6-(4-morpholinophenyl)-2,4,7-trioxooctahydro-4H,9H-furo [3″,2″:2′,3′]cyclopenta [1′,2′:3,4]furo [2,3-b]pyrrol-8-yl benzoate]
[1]; A549, 48 h
  viability at 50 µM: 90.1%
A549 cells [2]; A549 cells, 50 uM, 48 h, CCK-8
  viability at 50 µM: 95.3%
Jurkat cells; [4]
  viability at 50 µM: 84.8%

## CC(C)(C)[C@]1(O)C[C@@H]2OC(=O)C[C@@]23C(=O)O[C@@H]2N(c4ccc5c(c4)OCO5)C(=O)[C@H](OC(=O)c4ccccc4)[C@]213 [XBB-039, (3aS,5aS,8R,8aS,9R,10aS)-6-(benzo[d][1,3]dioxol-5-yl)-9-(tert-butyl)-9-hydroxy-2,4,7-trioxooctahydro-4H,9H-furo [3″,2″:2′,3′]cyclopenta [1′,2′:3,4]furo [2,3-b]pyrrol-8-yl benzoate]
[1]; A549, 48 h
  viability at 50 µM: 74.1%
A549 cells [2]; A549 cells, 50 uM, 48 h, CCK-8
  viability at 50 µM: 78.4%
Jurkat cells; [4]
  viability at 50 µM: 69.7%

## CC(C)(C)[C@]1(O)C[C@@H]2OC(=O)C[C@@]23C(=O)O[C@@H]2N(c4cccnc4)C(=O)[C@H](OC(=O)c4ccccc4)[C@]213 [XBB-040, (3aS,5aS,8R,8aS,9R,10aS)-9-(tert-butyl)-9-hydroxy-2,4,7-trioxo-6-(pyridin-3-yl)octahydro-4H,9H-furo [3″,2″:2′,3′]cyclopenta [1′,2′:3,4]furo [2,3-b]pyrrol-8-yl benzoate]
[1]; A549, 48 h
  viability at 50 µM: 99%
A549 cells [2]
  viability at 50 µM: 99.6%
Jurkat cells; [5]
  viability at 50 µM: 98.4%

## CC(C)(C)[C@]1(O)C[C@@H]2OC(=O)C[C@@]23C(=O)O[C@@H]2N(c4ccc(N5CCOCC5)cc4)C(=O)[C@H](O)[C@]213 [XBB-042, (3aS,5aS,8R,8aS,9R,10aS)-9-(tert-butyl)-8,9-dihydroxy-6-(4-morpholinophenyl)tetrahydro-4H,9H-furo [3″,2″:2′,3′]cyclopenta [1′,2′:3,4]furo [2,3-b]pyrrole-2,4,7(3H,8H)-trione]
[1]; A549, 48 h
  viability at 50 µM: 96.7%
A549 cells [2]
  viability at 50 µM: 95.6%
Jurkat cells; [5]
  viability at 50 µM: 97.8%

## CC(C)(C)[C@]1(O)C[C@@H]2OC(=O)C[C@@]23C(=O)O[C@@H]2N(CC4CCN(C(=O)c5ccc6c(c5)OCCO6)CC4)C(=O)[C@H](OC(=O)c4ccccc4)[C@]213 [XBB-045, (3aS,5aS,8R,8aS,9R,10aS)-9-(tert-butyl)-6-((1-(2,3-dihydrobenzo[b][1,4]dioxine-6-carbonyl)piperidin-4-yl)methyl)-9-hydroxy-2,4,7-trioxooctahydro-4H,9H-furo [3″,2″:2′,3′]cyclopenta [1′,2′:3,4]furo[2,3-b]pyrrol-8-yl benzoate]
[1]; A549, 48 h
  viability at 50 µM: 85.9%
A549 cells [2]; A549 cells, 50 uM, 48 h, CCK-8
  viability at 50 µM: 87%
Jurkat cells; [4]
  viability at 50 µM: 84.8%

## CC(=O)O[C@H]1C(=O)N(CCn2cc3ccccc3c2C)[C@H]2OC(=O)[C@]34CC(=O)O[C@H]3C=C(C(C)(C)C)[C@@]214 [XBB-054]
[1]; A549, 48 h
  viability at 50 µM: 90.9%
A549 cells [2]; A549 cells, 50 uM, 48 h, CCK-8
  viability at 50 µM: 88.8%
Jurkat cells; [4]
  viability at 50 µM: 93%

## CC(=O)O[C@H]1C(=O)N(CC2CCN(C(=O)OC(C)(C)C)CC2)[C@H]2OC(=O)[C@]34CC(=O)O[C@H]3C=C(C(C)(C)C)[C@@]214 [XBB-060]
[1]; A549, 48 h
  viability at 50 µM: 106%
A549 cells [2]; A549 cells, 50 uM, 48 h, CCK-8
  viability at 50 µM: 108%
Jurkat cells; [4]
  viability at 50 µM: 104%

## CC(C)(C)[C@]1(O)C[C@@H]2OC(=O)C[C@@]23C(=O)O[C@@H]2N(c4cccc5c4OCO5)C(=O)[C@H](OC(=O)c4ccccc4)[C@]213 [XBB-068]
[1]; A549, 48 h
  viability at 50 µM: 97.5%
A549 cells [2]; A549 cells, 50 uM, 48 h, CCK-8
  viability at 50 µM: 93.6%
Jurkat cells; [4]
  viability at 50 µM: 101%

## CC(=O)O[C@H]1C(=O)NC(N)=N[C@H]2OC(=O)[C@]34CC(=O)O[C@H]3C=C(C(C)(C)C)[C@@]214 [XBB-073]
[1]; A549, 48 h
  viability at 50 µM: 86.5%
A549 cells [2]; A549 cells, 50 uM, 48 h, CCK-8
  viability at 50 µM: 66.5%
Jurkat cells; [4]
  viability at 50 µM: 107%

## C=C(C)[C@@]1(C)C[C@@H]2OC(=O)C[C@@]23C(=O)O[C@@H]2N(c4ccccc4)NC(=O)[C@H](OC(C)=O)[C@]213 [XBB-075]
[1]; A549, 48 h
  viability at 50 µM: 84%
A549 cells [2]; A549 cells, 50 uM, 48 h, CCK-8
  viability at 50 µM: 67.4%
Jurkat cells; [4]
  viability at 50 µM: 101%

Reference: patent US20250144069A1, “BILOBALIDE DERIVATIVE COMPOUNDS FOR TREATING NEUROLOGICAL DISEASES AND CANCERS” (The Chinese University of Hong Kong, priority 2023, published 2025)
